Test results as given in ChEMBL document CHEMBL1143708, “5-alkynyl analogs of arabinouridine and 2'-deoxyuridine: cytostatic activity against herpes simplex virus and varicella-zoster thymidine kinase gene-transfected cells” (J Med Chem, 2007).
≈ marks a conversion by molar mass, not a printed value.

Test system: Vaccinia virus
Test: Antiviral activity against Vaccinia virus in E6SM cells assessed as reduction of virus-induced cytopathogenicity
Assay type: functional, organism-based
Conditions: Orthopoxvirus vaccinia

SMILES | EC50 [µg/mL]
C#Cc1cn([C@H]2C[C@H](O)[C@@H](CO)O2)c(=O)[nH]c1=O | 0.1 (≈ 0.396 µM)
C[Si](C)(C)C#Cc1cn([C@H]2C[C@H](O)[C@@H](CO)O2)c(=O)[nH]c1=O | 0.2 (≈ 0.617 µM)
CC(=O)OC[C@H]1O[C@@H](n2cc(C#CI)c(=O)[nH]c2=O)[C@@H](OC(C)=O)[C@@H]1OC(C)=O | > 10
O=c1[nH]c(=O)n([C@H]2C[C@H](O)[C@@H](CO)O2)cc1C#CI | 0.2 (≈ 0.529 µM)
C[Si](C)(C)C#Cc1cn([C@@H]2O[C@H](CO)[C@@H](O)[C@@H]2O)c(=O)[nH]c1=O | 7 (≈ 20.6 µM)
Nc1nc2c(ncn2COCCO)c(=O)[nH]1 [ACYCLOVIR] | > 400
O=c1[nH]c(=O)n([C@H]2C[C@H](O)[C@@H](CO)O2)cc1/C=C/Br [BRIVUDINE] | 0.2 (≈ 0.6 µM)
Nc1nc2c(ncn2COC(CO)CO)c(=O)[nH]1 [GANCICLOVIR] | > 100
NC(=O)c1ncn([C@@H]2O[C@H](CO)[C@@H](O)[C@H]2O)n1 [RIBAVIRIN] | 20 (≈ 81.9 µM)
